Where “and” joins values, the source holds several entries; their conditions need not be identical. Equal entries are not always repeated.
Tested on: Tg-SwDI mice
Experiment: Drainage of injected fluorescent label Aβ1-40 through perivascular interstitial fluid pathway
Format: in vivo
Conditions: single images FIGS. 8 to 10, 30 minutes after injection into striate, cilostazol-containing feed group
From the text: To verify interstitial flow improvement by cilostazol, harmful protein drainage facilitation by cilostazol was examined by using a cerebral amyloid angiopathy model. Totally unlike a drainage system through a specific receptor or antigen-antibody reaction, drainage of harmful proteins through the interstitial flow is a general drainage system irrespective of the type and amount of proteins, and Aβ in these examples is merely an example of intracerebral harmful proteins for which the interstitial flow is improved so that drainage is facilitated.
After 15 months from the start of breeding, with respect to Tg-SwDI mice (n=4) of a group administered with cilostazol-containing feed for 13.5 months and Tg-SwDI mice (n=3) of the ordinary feed administered group, Tg-SwDI mice were placed at the prone position under inhalation anesthesia using 1.5% isoflurane, midline incision of scalp was performed, and then, by using a 32 G micropipet, such that a fluorescent label Aβ1-40 was injected for 30 seconds in the manner of stereotaxy into the striate of Tg-SwDI mice (a front part of 0.98 mm and a side part of 1.5 mm in bregma) as indicated by the arrow in FIG. 7. The depth from the brain surface to the injection site of the striate was 3.0 mm, and the fluorescent label Aβ1-40 was purchased from AnaSpec (San Jose, Calif., USA). […]

Structure (SMILES): O=C1CCc2cc(OCCCCc3nnnn3C3CCCCC3)ccc2N1 [cilostazol, 6-[4-(1-cyclohexyl-1H-tetrazole-5-yl)butoxy]3,4-dihydrocarbostyril]
- distance of fluorescent label Aβ1-40 accumulation site of a leptomeninges vessel from the injection site: 2922 μm and 3422 μm and 3507 μm

— patent US10016409B2, “Method for improving interstitial flow” (priority 2012, dated 2018)
